Reference: article PMC9534960, “De Novo Design of an Androgen Receptor DNA Binding Domain‐Targeted peptide PROTAC for Prostate Cancer Therapy” (Advanced Science, 2022)
No end group written: not given here.

Experiments:
AR in CWR22rv1 cells = assay: Immunoblot AR degradation, CWR22rv1; type: cell-based; conditions: immunoblot (Figure S16)
Procedure: H, I) IB analysis of WCLs from C4‐2 cells (H) and LNCaP cells (I) treated with CHX for the indicated times, with or without 250 nM Au‐AR DBD PROTAC drug treatment. The signal intensity of AR normalized to that of Vinculin was quantified. […] The signal intensities of AR and AR‐V7 normalized to that of Vinculin were quantified separately.
To investigate the AR cleavage ability of the Au‐AR DBD PROTAC drug, an immunoblot (IB) analysis of AR was performed. The primary antibody (catalog number:sc‐7305) targeting AR we used is raised against amino acids 299–315 of AR, so we could determine both AR and AR‐V7 at the same time.
Immunoblotting was performed to determine the AR amount after Au‐AR DBD PROTAC treatment. Cells were lysed in EBC buffer (50 mM Tris (pH 7.5), 120 mM NaCl, and 0.5% NP‐40) supplemented with protease inhibitors. Cell lysates were quantified by a Pierce bicinchoninic acid (BCA) Protein Assay Kit (Thermo Fisher). Equal amounts of total proteins were loaded for western blotting analysis. The proteins were separated by SDS‐PAGE gels. Then proteins were transferred to polyvinylidene fluoride (PVDF) membranes and incubated with specific primary antibodies at 4 °C overnight. After incubating with HRP‐conjugated secondary antibody for 1 h at room temperature, the protein immunoreactive signals were tested.

C4‐2 xenografts = assay: C4‐2 subcutaneous xenograft, tumor growth; type: in vivo, nude mice; conditions: 2 mg kg^−1, subcutaneous injection, every three days for three weeks, n = 5 per group
Procedure: (§1) Two administration routes were tested in the xenograft models, with subcutaneous injection (SC.) in C4‐2 models and intraperitoneal injection (IP.) in CWR‐22rv1 models. […] Each injection volume was 100 µl and PBS was used as control.
(§2) IHC score analysis was performed by the Image J IHC profiler.
(§3) A) Tumor growth curves of C4‐2 xenografts in nude mice treated as indicated (n = 5 per group). Statistical analysis was performed using the nonparametric Kruskal‐Wallis test; ****, p < 0.0001. The data are presented as the mean ± SD values (n = 5). B) Photos of C4‐2 tumors excised at the end of the experiment after different drug treatments. C) Average weight of tumors excised from each group of mice at the end of drug treatment. The data are presented as the mean ± SD values (n = 5). […] IHC scores were determined with ImageJ: 4, highly positive; 3, positive; 2, minimally positive; 1, negative. […] […]
(§4) Treatment of five groups of mice (5 mice per group) was initiated (i.e., day 1) after tumors were established in 2 weeks as palpable masses (50 mm^3). […] The tumor length and width were measured with calipers, and the tumor volume was calculated using the following equation: tumor volume (V) = length × width^2/2. […] All IHC staining images were scored using ImageJ profiler as published protocol.

CWR22Rv1 xenografts = assay: CWR22Rv1 subcutaneous xenograft, tumor growth; type: in vivo, nude mice; conditions: 2 mg kg^−1, intraperitoneal injection, every three days for three weeks, n = 5 per group
Procedure: as §1, §2, §3, §4

AR ΔDBD = assay: ITC binding to AR ΔDBD; conditions: AR with mutation of amino acids (575‐591) in the DBD
Procedure: To determine the specificity of AR pep‐PROTAC, mutation of amino acids (575‐591) in the AR DBD plasmid was conducted.
ITC (isothermal titration calorimetry) was an established technique that can determine the binding ability between protein and ligands. The signal measured was the heat released upon the interaction of the two reactants. All proteins – MDM2, AR‐V7, or AR ΔDBD were obtained with E.Coli expression and purified by affinity chromatography. All peptides were synthesized by solid‐phase peptide synthesis and purified by preparative high‐performance liquid chromatography. For ITC experiments, clean sample cells and injection syringe were cleaned according to the manufacturer's protocol before loading protein and peptide. Rinse the sample cell several times with 2 ml of buffer. Load the sample cell with 0.2 ml of protein solution (all proteins concentration were around 20 µM), being careful to avoid bubble formation, load the syringe with 0.04 ml peptide solution (all peptides concentrations were around 200 µM). Choose the temperature at 25 °C for the ITC experiments. a small volume (0.4 µl) for the first injection was used and keep the subsequent injections at the desired volume (2 µl for 19 injections). Once the experiment had finished, the ITC data was fitted with the analysis software for the instrument.
Figure S20. Binding affinity between AR pep-PROTAC and AR-ΔDBD measured […]

N#Cc1ccc(O[C@H]2CC[C@H](NC(=O)c3ccc(N4CCC(CN5CCN(c6cc7c(cc6F)C(=O)N(C6CCC(=O)NC6=O)C7=O)CC5)CC4)nn3)CC2)cc1Cl (stereo partly shown) [ARV‐110]
full‐length AR degradation in CWR22rv1 cells (in words) (AR in CWR22rv1 cells): induced full‐length AR degradation

CNC(=O)c1ccc(N2C(=S)N(c3ccc(C#N)c(C(F)(F)F)c3)C(=O)C2(C)C)cc1F [enzalutamide]
effect on tumor growth, C4‐2 xenograft (C4‐2 xenografts): inhibited tumor growth | effect on tumor growth, CWR22Rv1 xenograft (CWR22Rv1 xenografts): but not the CWR22Rv1 xenograft model

YLCSSNNNRERDKFRRGGSGGTSFEQFWAWLWP-NH2 (C-terminus assumed) [AR pep‐PROTAC]
interaction with AR ΔDBD by ITC (AR ΔDBD): no interaction
